Species: Rattus norvegicus
Assay: Open TG-GATES - Regimen: Daily Repeat
Format: toxicity, organism-based, Sprague-Dawley
Design: regimen Daily Repeat, gender Male, age 6 weeks
Settings: in vivo, po, route gavage; for APTT / Bas / Eos / Fbg / Hb / Ht / Lym / MCH / MCHC / MCV / Mono / Neu / PT / Plat / RBC / Ret / WBC: tissue Blood; for KIDNEY_L / KIDNEY_R / KIDNEY_TOTAL: tissue Kidney; for LIVER: tissue Liver; for A/G / ALP / ALT / AST / BUN / CRE / Ca / Cl / DBIL / GLC / IP / K / LDH / Na / PL / RALB / TBIL / TC / TG / TP / gamma-GTP: tissue Plasma
[1] = 0 mg/kg, 72 h, dose level Control, time 3 day
[2] = 0 mg/kg, […], dose level Control, time 7 day
[3] = 0 mg/kg, […], dose level Control, time 14 day
[4] = 0 mg/kg, […], dose level Control, time 28 day
[5] = 30 mg/kg, 72 h, dose level Low, time 3 day
[6] = 30 mg/kg, […], dose level Low, time 7 day
[7] = 30 mg/kg, […], dose level Low, time 14 day
[8] = 30 mg/kg, […], dose level Low, time 28 day

## CCc1cc(C(N)=S)ccn1 [ETHIONAMIDE]
[1]
  TERMINAL_BW: 250.2 g
  APTT: 17.3 s
  Bas: 0%
  Eos: 1%
  Fbg: 262 mg/dL
  Hb: 13.2 g/dL
  Ht: 38.9%
  Lym: 73%
  MCH: 22 pg
  MCHC: 33.9%
  MCV: 64.7 fL
  Mono: 7.6%
  Neu: 18.6%
  PT: 11.9 s
  Plat: 128 x10_4/uL
  RBC: 601.2 x10_4/ul
  Ret: 12.2%
  WBC: 130.2 x10_2/uL
  KIDNEY_L: 1.1 g
  KIDNEY_R: 1.2 g
  KIDNEY_TOTAL: 2.3 g
  LIVER: 12.8 g
  A/G: 1.6
  ALP: 851.8 IU/L
  ALT: 39 IU/L
  AST: 62.8 IU/L
  BUN: 18.2 mg/dL
  CRE: 0.5 mg/dL
  Ca: 11 mg/dL
  Cl: 104.6 meq/L
  DBIL: 0.018 mg/dL
  GLC: 188.6 mg/dL
  IP: 7.3 mg/dL
  K: 4.6 meq/L
  LDH: 80.2 IU/L
  Na: 141 meq/L
  PL: 153 mg/dL
  RALB: 3.6 g/dL
  TBIL: 0.3 mg/dL
  TC: 80.6 mg/dL
  TG: 99 mg/dL
  TP: 5.8 g/dL
  gamma-GTP: 2 IU/L
[2]
  TERMINAL_BW: 270.2 g
  APTT: 17.5 s
  Bas: 0%
  Eos: 1%
  Fbg: 218.4 mg/dL
  Hb: 14.1 g/dL
  Ht: 41.5%
  Lym: 78%
  MCH: 21.4 pg
  MCHC: 34%
  MCV: 62.9 fL
  Mono: 8%
  Neu: 13%
  PT: 11.5 s
  Plat: 119.6 x10_4/uL
  RBC: 661.6 x10_4/ul
  Ret: 3.8%
  WBC: 107.3 x10_2/uL
  KIDNEY_L: 1.2 g
  KIDNEY_R: 1.3 g
  KIDNEY_TOTAL: 2.5 g
  LIVER: 13.2 g
  A/G: 1.6
  ALP: 836.8 IU/L
  ALT: 30.8 IU/L
  AST: 58.4 IU/L
  BUN: 18.4 mg/dL
  CRE: 0.4 mg/dL
  Ca: 10.2 mg/dL
  Cl: 103.8 meq/L
  DBIL: 0.064 mg/dL
  GLC: 195.6 mg/dL
  IP: 7.3 mg/dL
  K: 4.8 meq/L
  LDH: 74.6 IU/L
  Na: 140 meq/L
  PL: 153.4 mg/dL
  RALB: 3.7 g/dL
  TBIL: 0.3 mg/dL
  TC: 74.2 mg/dL
  TG: 129.4 mg/dL
  TP: 6 g/dL
  gamma-GTP: 2 IU/L
[3]
  TERMINAL_BW: 326.8 g
  APTT: 18.7 s
  Bas: 0%
  Eos: 1%
  Fbg: 215.4 mg/dL
  Hb: 14.8 g/dL
  Ht: 43.6%
  Lym: 79.6%
  MCH: 20.5 pg
  MCHC: 33.8%
  MCV: 60.8 fL
  Mono: 5.4%
  Neu: 14.2%
  PT: 12 s
  Plat: 120.6 x10_4/uL
  RBC: 718.8 x10_4/ul
  Ret: 4%
  WBC: 122.9 x10_2/uL
  KIDNEY_L: 1.3 g
  KIDNEY_R: 1.3 g
  KIDNEY_TOTAL: 2.7 g
  LIVER: 14.6 g
  A/G: 2.3
  ALP: 758.4 IU/L
  ALT: 32 IU/L
  AST: 62 IU/L
  BUN: 19.8 mg/dL
  CRE: 0.5 mg/dL
  Ca: 10.7 mg/dL
  Cl: 105.6 meq/L
  DBIL: 0.052 mg/dL
  GLC: 196.2 mg/dL
  IP: 6.8 mg/dL
  K: 4.7 meq/L
  LDH: 68.6 IU/L
  Na: 142 meq/L
  PL: 146.2 mg/dL
  RALB: 4.1 g/dL
  TBIL: 0.3 mg/dL
  TC: 68.8 mg/dL
  TG: 111.6 mg/dL
  TP: 5.8 g/dL
  gamma-GTP: 1.4 IU/L
[4]
  TERMINAL_BW: 416.8 g
  APTT: 18.6 s
  Bas: 0%
  Eos: 1.6%
  Fbg: 235.8 mg/dL
  Hb: 15.6 g/dL
  Ht: 46%
  Lym: 78.8%
  MCH: 19.6 pg
  MCHC: 34%
  MCV: 57.7 fL
  Mono: 6.6%
  Neu: 13.2%
  PT: 11.9 s
  Plat: 116.1 x10_4/uL
  RBC: 796.2 x10_4/ul
  Ret: 4.8%
  WBC: 122.5 x10_2/uL
  KIDNEY_L: 1.6 g
  KIDNEY_R: 1.6 g
  KIDNEY_TOTAL: 3.2 g
  LIVER: 17.7 g
  A/G: 1.8
  ALP: 523.4 IU/L
  ALT: 31.6 IU/L
  AST: 55.6 IU/L
  BUN: 21.2 mg/dL
  CRE: 0.6 mg/dL
  Ca: 10.2 mg/dL
  Cl: 104.4 meq/L
  DBIL: 0.02 mg/dL
  GLC: 199.4 mg/dL
  IP: 6 mg/dL
  K: 4.6 meq/L
  LDH: 74.8 IU/L
  Na: 140.4 meq/L
  PL: 141.2 mg/dL
  RALB: 4 g/dL
  TBIL: 0.3 mg/dL
  TC: 69 mg/dL
  TG: 157.2 mg/dL
  TP: 6.2 g/dL
  gamma-GTP: 1.8 IU/L
[5]
  TERMINAL_BW: 240.4 g
  APTT: 17.3 s
  Bas: 0%
  Eos: 1.6%
  Fbg: 217.6 mg/dL
  Hb: 14.2 g/dL
  Ht: 42.2%
  Lym: 75%
  MCH: 21 pg
  MCHC: 33.7%
  MCV: 62.3 fL
  Mono: 6.6%
  Neu: 17.4%
  PT: 11.5 s
  Plat: 130.1 x10_4/uL
  RBC: 677.6 x10_4/ul
  Ret: 9.8%
  WBC: 94.2 x10_2/uL
  KIDNEY_L: 1.1 g
  KIDNEY_R: 1.1 g
  KIDNEY_TOTAL: 2.2 g
  LIVER: 12.2 g
  A/G: 1.8
  ALP: 919.8 IU/L
  ALT: 34.4 IU/L
  AST: 60 IU/L
  BUN: 18 mg/dL
  CRE: 0.5 mg/dL
  Ca: 10.7 mg/dL
  Cl: 105.4 meq/L
  DBIL: 0.008 mg/dL
  GLC: 190.8 mg/dL
  IP: 7.2 mg/dL
  K: 4.6 meq/L
  LDH: 84 IU/L
  Na: 141.2 meq/L
  PL: 152.6 mg/dL
  RALB: 3.6 g/dL
  TBIL: 0.2 mg/dL
  TC: 80 mg/dL
  TG: 100.4 mg/dL
  TP: 5.6 g/dL
  gamma-GTP: 2 IU/L
[6]
  TERMINAL_BW: 280.6 g
  APTT: 16.9 s
  Bas: 0%
  Eos: 1%
  Fbg: 223.4 mg/dL
  Hb: 13.9 g/dL
  Ht: 41.1%
  Lym: 71%
  MCH: 21.2 pg
  MCHC: 34%
  MCV: 62.5 fL
  Mono: 9.4%
  Neu: 18.8%
  PT: 11.5 s
  Plat: 132.9 x10_4/uL
  RBC: 657.4 x10_4/ul
  Ret: 5%
  WBC: 131.2 x10_2/uL
  KIDNEY_L: 1.2 g
  KIDNEY_R: 1.2 g
  KIDNEY_TOTAL: 2.4 g
  LIVER: 13.8 g
  A/G: 1.6
  ALP: 859.6 IU/L
  ALT: 31.8 IU/L
  AST: 57.2 IU/L
  BUN: 20 mg/dL
  CRE: 0.4 mg/dL
  Ca: 10.4 mg/dL
  Cl: 103.2 meq/L
  DBIL: 0.078 mg/dL
  GLC: 197.2 mg/dL
  IP: 6.8 mg/dL
  K: 5 meq/L
  LDH: 95.2 IU/L
  Na: 139.2 meq/L
  PL: 143.6 mg/dL
  RALB: 3.6 g/dL
  TBIL: 0.3 mg/dL
  TC: 71.8 mg/dL
  TG: 119.6 mg/dL
  TP: 5.9 g/dL
  gamma-GTP: 2 IU/L
[7]
  TERMINAL_BW: 330.7 g
  APTT: 16.8 s
  Bas: 0%
  Eos: 1.2%
  Fbg: 223 mg/dL
  Hb: 14.9 g/dL
  Ht: 43.6%
  Lym: 76.4%
  MCH: 20.7 pg
  MCHC: 34.1%
  MCV: 60.6 fL
  Mono: 4%
  Neu: 18%
  PT: 11.8 s
  Plat: 125.2 x10_4/uL
  RBC: 720.8 x10_4/ul
  Ret: 4.5%
  WBC: 124.4 x10_2/uL
  KIDNEY_L: 1.4 g
  KIDNEY_R: 1.4 g
  KIDNEY_TOTAL: 2.7 g
  LIVER: 15 g
  A/G: 2.3
  ALP: 705.8 IU/L
[8]
  TERMINAL_BW: 406.9 g
  APTT: 17.4 s
  Bas: 0%
  Eos: 1.4%
  Fbg: 234.8 mg/dL
  Hb: 15.5 g/dL
  Ht: 45.4%
  Lym: 74%
  MCH: 19.8 pg
  MCHC: 34.2%
  MCV: 57.7 fL
  Mono: 6%
  Neu: 19.2%
  PT: 11.7 s
  Plat: 123.5 x10_4/uL
  RBC: 785.8 x10_4/ul
  Ret: 5.4%
  WBC: 154 x10_2/uL
  KIDNEY_L: 1.5 g
  KIDNEY_R: 1.6 g
  KIDNEY_TOTAL: 3.1 g
  LIVER: 17.7 g

Source: ChEMBL document CHEMBL3885861, “Open TG-GATES”
